In patent US10745384B2, “Indazole derivatives as αv integrin antagonists” (BRISTOL-MYERS SQUIBB COMPANY, priority 2016, dated 2020):
Where a name gives a salt, the structure may show the parent alone.

Molecular target: T1, human αVβ6 (Homo sapiens, UniProt P06756+P18564)
T1 construct: purchased R & D systems 3817-AV
Assay: human αVβ6 HTRF binding assay
Details: recombinant human αVβ6 integrin, FITC-conjugated fibronectin
Description: All binding assays used the HTRF (homogeneous time resolved fluorescence) technology from Cisbio International, therefore all assays are described as HTRF binding assays. The assay results for the Examples are listed above together with the characterization data. The HTRF binding assays are established for the following integrins: human αVβ6, human αVβ1, human αVβ3, human αVβ5, and human αVβ8. All assays used the following assay buffer: 20 mM Tris, pH 7.4, 1 mM MgCl2, 1 mM MnCl2, 0.01% Tween 20, and 0.01% BSA. Alternatively, a SPA-based assay was used for evaluation of receptor binding.
The following describes the components and a representative procedure for the human αVβ6 HTRF binding assay: Recombinant human αVβ6 Integrin (R & D systems, 3817-AV) was biotinylated. Biotinylated human αVβ6 Integrin was added to assay vessel at a final concentration of 1.25 nM. FITC-conjugated fibronectin (Cytoskeleton, FNR02) was then added at the final concentration of 5 nM. The mixture was centrifuged at 600 rpm for three minutes using Thermo Fisher Heraeus Multifuge X3 centrifuge and then incubated at room temperature for an hour. Streptavidin Terbium (Cisbio international 610STLB) was then added at the final concentration of 0.625 nM. The resulting mixture was centrifuged at 600 rpm for three minutes using Thermo Fisher Heraeus Multifuge X3 centrifuge and then incubated at room temperature overnight in dark before reading HTRF signals. […]

T1 sequence (P06756 31-992 limits assumed): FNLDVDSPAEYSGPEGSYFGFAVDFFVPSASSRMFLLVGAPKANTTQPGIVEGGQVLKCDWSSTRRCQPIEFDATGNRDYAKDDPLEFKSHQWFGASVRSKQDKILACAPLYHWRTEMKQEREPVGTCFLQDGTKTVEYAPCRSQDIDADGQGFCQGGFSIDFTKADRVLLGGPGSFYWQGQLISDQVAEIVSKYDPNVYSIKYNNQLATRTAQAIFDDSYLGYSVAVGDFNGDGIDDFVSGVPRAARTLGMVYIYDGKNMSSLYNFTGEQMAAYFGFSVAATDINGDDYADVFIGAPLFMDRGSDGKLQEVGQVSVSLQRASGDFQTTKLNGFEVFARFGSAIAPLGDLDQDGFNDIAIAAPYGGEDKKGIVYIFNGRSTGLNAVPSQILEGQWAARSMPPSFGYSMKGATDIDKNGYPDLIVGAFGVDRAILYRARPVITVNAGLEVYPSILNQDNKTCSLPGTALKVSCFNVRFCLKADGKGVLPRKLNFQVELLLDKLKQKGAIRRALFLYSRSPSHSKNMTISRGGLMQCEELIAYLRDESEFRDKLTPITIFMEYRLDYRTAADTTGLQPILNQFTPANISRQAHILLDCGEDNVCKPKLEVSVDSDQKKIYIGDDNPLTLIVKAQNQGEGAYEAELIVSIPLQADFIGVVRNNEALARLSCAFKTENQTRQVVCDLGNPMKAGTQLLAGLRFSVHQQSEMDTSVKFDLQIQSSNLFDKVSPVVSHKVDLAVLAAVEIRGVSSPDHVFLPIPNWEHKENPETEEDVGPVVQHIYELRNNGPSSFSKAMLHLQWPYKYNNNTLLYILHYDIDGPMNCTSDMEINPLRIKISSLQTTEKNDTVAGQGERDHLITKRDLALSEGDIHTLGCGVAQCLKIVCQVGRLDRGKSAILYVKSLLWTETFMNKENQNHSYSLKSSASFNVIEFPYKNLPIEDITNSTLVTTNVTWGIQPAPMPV
T1 sequence (P18564 22-707 limits assumed): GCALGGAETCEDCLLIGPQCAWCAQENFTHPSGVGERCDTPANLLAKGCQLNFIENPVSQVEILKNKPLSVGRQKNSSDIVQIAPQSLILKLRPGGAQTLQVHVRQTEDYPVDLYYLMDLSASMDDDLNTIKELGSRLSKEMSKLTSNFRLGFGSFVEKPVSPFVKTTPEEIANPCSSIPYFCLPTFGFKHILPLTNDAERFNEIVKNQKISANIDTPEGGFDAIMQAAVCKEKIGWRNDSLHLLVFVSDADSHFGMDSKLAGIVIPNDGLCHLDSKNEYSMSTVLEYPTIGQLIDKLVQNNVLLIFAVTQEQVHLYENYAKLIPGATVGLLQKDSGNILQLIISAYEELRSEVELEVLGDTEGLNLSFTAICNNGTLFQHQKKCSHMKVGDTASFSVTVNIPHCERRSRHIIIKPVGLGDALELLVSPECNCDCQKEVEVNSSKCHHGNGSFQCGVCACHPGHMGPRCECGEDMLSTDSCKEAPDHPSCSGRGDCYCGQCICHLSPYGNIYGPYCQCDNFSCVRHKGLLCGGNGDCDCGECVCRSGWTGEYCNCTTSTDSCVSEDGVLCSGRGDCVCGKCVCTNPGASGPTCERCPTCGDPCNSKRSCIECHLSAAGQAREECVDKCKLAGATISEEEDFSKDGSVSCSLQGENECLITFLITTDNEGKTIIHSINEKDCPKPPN

Row | IC50 [nM] | Structure (SMILES)
1 | 1.7 | O=C(O)CC(c1cccc(N2CCOCC2)c1)n1ncc2cc(OCCc3ccc4c(n3)NCCC4)ccc21 (centres unmarked) [Example 58, 3-(3-Morpholinophenyl)-3-(5-(2-(5,6,7,8-tetrahydro-1,8-naphthyridin-2-yl)ethoxy)-1H-indazol-1-yl)propanoic acid, TFA]
2 | 1.2 | O=C(O)CC(c1cccc(-n2cccc2)c1)n1ncc2cc(OCCc3ccc4c(n3)NCCC4)ccc21 (centres unmarked) [Example 59, 3-(3-(1H-Pyrrol-1-yl)phenyl)-3-(5-(2-(5,6,7,8-tetrahydro-1,8-naphthyridin-2-yl)ethoxy)-1H-indazol-1-yl)propanoic acid, TFA]
3 | 37 | O=C(O)CC(c1cccc(N2CCCC2=O)c1)n1ncc2cc(OCCc3ccc4c(n3)NCCC4)ccc21 (centres unmarked) [Example 62, 3-(3-(2-Oxopyrrolidin-1-yl)phenyl)-3-(5-(2-(5,6,7,8-tetrahydro-1,8-naphthyridin-2-yl)ethoxy)-1H-indazol-1-yl)propanoic acid, TFA]
4 | 55 | CCCn1cc(C(CC(=O)O)n2ncc3cc(OCCc4ccc5c(n4)NCCC5)ccc32)cn1 (centres unmarked) [Example 63, 3-(1-Propylpyrazol-4-yl)-3-(5-(2-(5,6,7,8-tetrahydro-1,8-naphthyridin-2-yl)ethoxy)-1H-indazol-1-yl)propanoic acid, TFA]
5 | 19 | COc1ccc([C@H](CC(=O)O)n2cc3cc(CCc4ccc5c(n4)NCCC5)ccc3n2)cn1 [Example 64, (S)-3-(6-Methoxypyridin-3-yl)-3-(5-(2-(5,6,7,8-tetrahydro-1,8-naphthyridin-2-yl)ethyl)-2H-indazol-2-yl)propanoic acid]
6 | 953 | COc1ccc(C(CC(=O)O)n2nc(C)c3cc(OCCc4ccc5c(n4)NCCC5)ccc32)cn1 (centres unmarked) [Example 70, 3-(6-Methoxypyridin-3-yl)-3-(3-methyl-5-(2-(5,6,7,8-tetrahydro-1,8-naphthyridin-2-yl)ethoxy)-1H-indazol-1-yl)propanoic acid]
7 | 64 | Cn1ccc(C(CC(=O)O)n2ncc3cc(OCCc4ccc5c(n4)NCCC5)ccc32)cc1=O (centres unmarked) [Example 71, 3-(1-Methyl-2-oxo-1,2-dihydropyridin-4-yl)-3-(5-(2-(5,6,7,8-tetrahydro-1,8-naphthyridin-2-yl)ethoxy)-1H-indazol-1-yl)propanoic acid, TFA]
8 | 1800 | O=C(O)C(CCc1ccccc1)Cn1ncc2cc(OCCc3ccc4c(n3)NCCC4)ccc21 (centres unmarked) [Example 73, 4-Phenyl-2-((5-(2-(5,6,7,8-tetrahydro-1,8-naphthyridin-2-yl)ethoxy)-1H-indazol-1-yl)methyl)butanoic acid]
9 | 23 | O=C(O)CC(c1ccncc1)n1ncc2cc(OCCc3ccc4c(n3)NCCC4)ccc21 (centres unmarked) [Example 75, 3-(Pyridin-4-yl)-3-(5-(2-(5,6,7,8-tetrahydro-1,8-naphthyridin-2-yl)ethoxy)-1H-indazol-1-yl)propanoic acid, 2 TFA]
10 | 33 | COc1cnc(C(CC(=O)O)n2ncc3cc(OCCc4ccc5c(n4)NCCC5)ccc32)cn1 (centres unmarked) [Example 79, 3-(5-Methoxypyrazin-2-yl)-3-(5-(2-(5,6,7,8-tetrahydro-1,8-naphthyridin-2-yl)ethoxy)-1H-indazol-1-yl)propanoic acid, TFA]
11 | 3.2 | O=C(O)C[C@@H](c1cnc2ccccc2c1)n1cc2ccc(CCc3ccc4c(n3)NCCC4)cc2n1 [Example 81, (S)-3-(Quinolin-3-yl)-3-(6-(2-(5,6,7,8-tetrahydro-1,8-naphthyridin-2-yl)ethyl)-2H-indazol-2-yl)propanoic acid]
12 | 20 | O=C(O)C[C@@H](c1cnc2ccccc2c1)n1cc2ccc(CCCC3CCc4cccnc4N3)cc2n1 (stereo partly drawn) [Example 88, (3S)-3-(Quinolin-3-yl)-3-(6-(3-(1,2,3,4-tetrahydro-1,8-naphthyridin-2-yl)propyl)-2H-indazol-2-yl)propanoic acid]
13 | 31 | O=C(O)CC(c1ccc2c(n1)NCCO2)n1ncc2cc(OCCc3ccc4c(n3)NCCC4)ccc21 (centres unmarked) [Example 91, 3-(3,4-Dihydro-2H-pyrido[3,2-b][1,4]oxazin-6-yl)-3-(5-(2-(5,6,7,8-tetrahydro-1,8-naphthyridin-2-yl)ethoxy)-1H-indazol-1-yl)propanoic acid, 2 TFA]
14 | 13 | O=C(O)CC(c1ccc2cnccc2c1)n1ncc2cc(OCCc3ccc4c(n3)NCCC4)ccc21 (centres unmarked) [Example 94, 3-(Isoquinolin-6-yl)-3-(5-(2-(5,6,7,8-tetrahydro-1,8-naphthyridin-2-yl)ethoxy)-1H-indazol-1-yl) propanoic acid, 2 TFA]

Further lines, the compound ahead of its results:

Row | Structure (SMILES) | IC50 [nM]
15 | CN(C)Cc1cccc(C(CC(=O)O)n2ncc3cc(OCCc4ccc5c(n4)NCCC5)ccc32)c1 (centres unmarked) [Example 60, 3-(3-((Dimethylamino)methyl)phenyl)-3-(5-(2-(5,6,7,8-tetrahydro-1,8-naphthyridin-2-yl)ethoxy)-1H-indazol-1-yl)propanoic acid, TFA] | 5.1
16 | O=C(O)CC(c1ccccn1)n1ncc2cc(OCCc3ccc4c(n3)NCCC4)ccc21 (centres unmarked) [Example 61, 3-(Pyridin-2-yl)-3-(5-(2-(5,6,7,8-tetrahydro-1,8-naphthyridin-2-yl)ethoxy)-1H-indazol-1-yl)propanoic acid, TFA] | 80
17 | COc1ccc([C@H](CC(=O)O)n2cc3cc(CCCc4ccc5c(n4)NCCC5)ccc3n2)cn1 [Example 67, (S)-3-(6-Methoxypyridin-3-yl)-3-(5-(3-(5,6,7,8-tetrahydro-1,8-naphthyridin-2-yl)propyl)-2H-indazol-2-yl)propanoic acid] | 740
18 | Cc1cc(C)n(-c2cccc(C(CC(=O)O)n3ncc4cc(OCCc5ccc6c(n5)NCCC6)ccc43)c2)n1 (centres unmarked) [Example 68, 3-(3-(3,5-Dimethylpyrazol-1-yl)phenyl)-3-(5-(2-(5,6,7,8-tetrahydro-1,8-naphthyridin-2-yl)ethoxy)-1H-indazol-1-yl)propanoic acid, TFA] | 1.5
19 | O=C(O)CC(Cc1ccc(OCc2ccccc2)cc1)n1ncc2cc(OCCc3ccc4c(n3)NCCC4)ccc21 (centres unmarked) [Example 69, 4-(4-(Benzyloxy)phenyl)-3-(5-(2-(5,6,7,8-tetrahydro-1,8-naphthyridin-2-yl)ethoxy)-1H-indazol-1-yl)butanoic acid, TFA] | 400
20 | CC(C)(C)OC(=O)N1CCC(C(CC(=O)O)n2ncc3cc(OCCc4ccc5c(n4)NCCC5)ccc32)CC1 (centres unmarked) [Example 74, 3-(1-(tert-Butoxycarbonyl)piperidin-4-yl)-3-(5-(2-(5,6,7,8-tetrahydro-1,8-naphthyridin-2-yl)ethoxy)-1H-indazol-1-yl)propanoic acid] | 260
21 | O=C(O)CC1(n2ncc3cc(OCCc4ccc5c(n4)NCCC5)ccc32)CC1 [Example 76, 2-(1-(5-(2-(5,6,7,8-tetrahydro-1,8-naphthyridin-2-yl)elhoxy)-1H-indazol-1-yl)cyclopropyl)acetic acid, TFA] | 3400
22 | O=C(O)CC(Cc1ccc(F)cc1)n1ncc2cc(OCCc3ccc4c(n3)NCCC4)ccc21 (centres unmarked) [Example 78, 4-(4-Fluorophenyl)-3-(5-(2-(5,6,7,8-tetrahydro-1,8-naphthyridin-2-yl)ethoxy)-1H-indazol-1-yl)butanoic acid, TFA] | 804
23 | O=C(O)CC(c1ccc2nccnc2c1)n1ncc2cc(OCCc3ccc4c(n3)NCCC4)ccc21 (centres unmarked) [Example 80, 3-(Quinoxalin-6-yl)-3-(5-(2-(5,6,7,8-tetrahydro-1,8-naphthyridin-2-yl)ethoxy)-1H-indazol-1-yl)propanoic acid, TFA] | 13
24 | Cc1nc2c(cc1Cc1ccc3cn([C@@H](CC(=O)O)c4cnc5ccccc5c4)nc3c1)CCCN2 [Example 82, (S)-3-(6-((2-Methyl-5,6,7,8-tetrahydro-1,8-naphthyridin-3-yl)methyl)-2H-indazol-2-yl)-3-(quinolin-3-yl)propanoic acid] | 150
25 | O=C(O)C[C@@H](c1cccc(N2CCCC2=O)c1)n1ncc2cc(OCCc3ccc4c(n3)NCCC4)ccc21 [Example 84, (S)-3-(3-(2-Oxopyrrolidin-1-yl)phenyl)-3-(5-(2-(5,6,7,8-tetrahydro-1,8-naphthyridin-2-yl)ethoxy)-1H-indazol-1-yl)propanoic acid, TFA] | 120
26 | O=C(O)C[C@H](c1cccc(N2CCCC2=O)c1)n1ncc2cc(OCCc3ccc4c(n3)NCCC4)ccc21 [Example 85, (R)-3-(3-(2-Oxopyrrolidin-1-yl)phenyl)-3-(5-(2-(5,6,7,8-tetrahydro-1,8-naphthyridin-2-yl)ethoxy)-1H-indazol-1-yl)propanoic acid, TFA] | 2.5
27 | COc1ncc(C(CC(=O)O)n2ncc3cc(OCCc4ccc5c(n4)NCCC5)ccc32)cc1F (centres unmarked) [Example 86, 3-(5-Fluoro-6-methoxypyridin-3-yl)-3-(5-(2-(5,6,7,8-tetrahydro-1,8-naphthyridin-2-yl)ethoxy)-1H-indazol-1-yl)propanoic acid, TFA] | 7.8
28 | Cc1cc(C(CC(=O)O)n2ncc3cc(OCCc4ccc5c(n4)NCCC5)ccc32)cnc1OCC(C)(C)O (centres unmarked) [Example 90, 3-(6-(2-Hydroxy-2-methylpropoxy)-5-methylpyridin-3-yl)-3-(5-(2-(5,6,7,8-tetrahydro-1,8-naphthyridin-2-yl)ethoxy)-1H-indazol-1-yl)propanoic acid, TFA] | 9.5
29 | O=C(O)CC(c1ccnc(N2CCCC2=O)c1)n1ncc2cc(OCCc3ccc4c(n3)NCCC4)ccc21 (centres unmarked) [Example 93, 3-(2-(2-Oxopyrrolidin-1-yl)pyridin-4-yl)-3-(5-(2-(5,6,7,8-tetrahydro-1,8-naphthyridin-2-yl)ethoxy)-1H-indazol-1-yl)propanoic acid, TFA] | 8.1
